Assay results from the Kinase Knowledgebase extract (Sharma et al. 2016).

Columns and labels:
Experiment in all cases: Enzyme Assay
PIK3CA (human) = PIK3CA (human) (UniProt P42336)
PIK3CG (human) = PIK3CG (human) (UniProt P48736)
PIK3CB (Human) = PIK3CB (Human) (UniProt P42338)
PIK3CD (Human) = PIK3CD (Human) (UniProt O00329)
Chain of PIK3CD (Human) (O00329 whole entry, looked up): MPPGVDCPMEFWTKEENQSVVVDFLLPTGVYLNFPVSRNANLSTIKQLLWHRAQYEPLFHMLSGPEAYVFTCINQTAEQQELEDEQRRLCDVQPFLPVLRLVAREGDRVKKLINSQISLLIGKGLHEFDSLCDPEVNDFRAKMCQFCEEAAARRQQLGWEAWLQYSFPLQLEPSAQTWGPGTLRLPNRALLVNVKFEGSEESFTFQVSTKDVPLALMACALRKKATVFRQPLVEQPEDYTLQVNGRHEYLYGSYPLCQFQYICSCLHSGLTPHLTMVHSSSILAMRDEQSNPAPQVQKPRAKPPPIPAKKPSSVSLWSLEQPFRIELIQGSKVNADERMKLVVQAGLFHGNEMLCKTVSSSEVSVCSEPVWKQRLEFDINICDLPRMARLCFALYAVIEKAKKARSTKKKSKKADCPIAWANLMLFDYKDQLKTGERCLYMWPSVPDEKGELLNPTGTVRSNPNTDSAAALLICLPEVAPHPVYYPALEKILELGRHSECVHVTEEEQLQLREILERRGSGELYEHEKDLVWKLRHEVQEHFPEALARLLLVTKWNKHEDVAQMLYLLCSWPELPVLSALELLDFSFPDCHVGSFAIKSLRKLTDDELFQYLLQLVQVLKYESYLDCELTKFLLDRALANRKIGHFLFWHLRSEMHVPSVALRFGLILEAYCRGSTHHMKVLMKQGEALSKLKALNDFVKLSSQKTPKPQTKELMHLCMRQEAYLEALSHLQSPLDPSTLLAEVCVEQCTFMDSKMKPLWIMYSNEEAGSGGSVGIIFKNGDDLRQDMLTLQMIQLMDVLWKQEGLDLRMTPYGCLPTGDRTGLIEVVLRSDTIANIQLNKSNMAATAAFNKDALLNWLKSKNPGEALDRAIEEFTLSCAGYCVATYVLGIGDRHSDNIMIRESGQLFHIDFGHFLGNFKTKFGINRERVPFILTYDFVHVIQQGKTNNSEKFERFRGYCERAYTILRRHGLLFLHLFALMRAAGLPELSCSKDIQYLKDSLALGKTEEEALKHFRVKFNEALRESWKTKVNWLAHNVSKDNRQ

Chain of PIK3CG (human) (P48736 whole entry, looked up): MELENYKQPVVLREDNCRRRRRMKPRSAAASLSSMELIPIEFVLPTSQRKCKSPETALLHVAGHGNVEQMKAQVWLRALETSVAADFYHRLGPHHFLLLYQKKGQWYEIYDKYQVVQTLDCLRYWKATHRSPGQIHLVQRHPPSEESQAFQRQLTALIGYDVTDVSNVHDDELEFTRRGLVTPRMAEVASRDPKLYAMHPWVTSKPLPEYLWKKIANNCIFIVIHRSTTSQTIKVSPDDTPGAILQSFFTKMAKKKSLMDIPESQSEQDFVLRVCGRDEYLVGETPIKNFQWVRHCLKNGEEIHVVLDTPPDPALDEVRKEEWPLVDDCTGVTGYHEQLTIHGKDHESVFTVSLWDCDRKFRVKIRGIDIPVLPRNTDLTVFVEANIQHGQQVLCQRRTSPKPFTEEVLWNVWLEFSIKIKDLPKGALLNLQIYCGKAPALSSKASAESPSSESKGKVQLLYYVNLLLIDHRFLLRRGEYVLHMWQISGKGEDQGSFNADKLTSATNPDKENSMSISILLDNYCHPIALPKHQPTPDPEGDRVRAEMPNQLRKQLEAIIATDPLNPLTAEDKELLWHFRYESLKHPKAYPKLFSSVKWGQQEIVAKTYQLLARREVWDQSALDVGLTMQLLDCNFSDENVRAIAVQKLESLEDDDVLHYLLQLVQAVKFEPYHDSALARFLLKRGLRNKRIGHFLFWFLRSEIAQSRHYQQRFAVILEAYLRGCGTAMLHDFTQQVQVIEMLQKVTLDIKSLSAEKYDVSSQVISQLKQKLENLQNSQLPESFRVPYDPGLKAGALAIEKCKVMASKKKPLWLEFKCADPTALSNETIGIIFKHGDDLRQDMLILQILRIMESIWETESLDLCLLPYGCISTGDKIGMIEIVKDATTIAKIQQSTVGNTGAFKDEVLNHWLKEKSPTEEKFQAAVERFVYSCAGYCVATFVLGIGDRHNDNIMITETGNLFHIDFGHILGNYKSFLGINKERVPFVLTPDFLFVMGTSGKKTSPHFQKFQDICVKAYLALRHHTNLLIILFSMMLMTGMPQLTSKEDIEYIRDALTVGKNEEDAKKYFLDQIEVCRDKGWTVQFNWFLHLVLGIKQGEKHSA
Chain of PIK3CB (Human) (P42338 whole entry, looked up): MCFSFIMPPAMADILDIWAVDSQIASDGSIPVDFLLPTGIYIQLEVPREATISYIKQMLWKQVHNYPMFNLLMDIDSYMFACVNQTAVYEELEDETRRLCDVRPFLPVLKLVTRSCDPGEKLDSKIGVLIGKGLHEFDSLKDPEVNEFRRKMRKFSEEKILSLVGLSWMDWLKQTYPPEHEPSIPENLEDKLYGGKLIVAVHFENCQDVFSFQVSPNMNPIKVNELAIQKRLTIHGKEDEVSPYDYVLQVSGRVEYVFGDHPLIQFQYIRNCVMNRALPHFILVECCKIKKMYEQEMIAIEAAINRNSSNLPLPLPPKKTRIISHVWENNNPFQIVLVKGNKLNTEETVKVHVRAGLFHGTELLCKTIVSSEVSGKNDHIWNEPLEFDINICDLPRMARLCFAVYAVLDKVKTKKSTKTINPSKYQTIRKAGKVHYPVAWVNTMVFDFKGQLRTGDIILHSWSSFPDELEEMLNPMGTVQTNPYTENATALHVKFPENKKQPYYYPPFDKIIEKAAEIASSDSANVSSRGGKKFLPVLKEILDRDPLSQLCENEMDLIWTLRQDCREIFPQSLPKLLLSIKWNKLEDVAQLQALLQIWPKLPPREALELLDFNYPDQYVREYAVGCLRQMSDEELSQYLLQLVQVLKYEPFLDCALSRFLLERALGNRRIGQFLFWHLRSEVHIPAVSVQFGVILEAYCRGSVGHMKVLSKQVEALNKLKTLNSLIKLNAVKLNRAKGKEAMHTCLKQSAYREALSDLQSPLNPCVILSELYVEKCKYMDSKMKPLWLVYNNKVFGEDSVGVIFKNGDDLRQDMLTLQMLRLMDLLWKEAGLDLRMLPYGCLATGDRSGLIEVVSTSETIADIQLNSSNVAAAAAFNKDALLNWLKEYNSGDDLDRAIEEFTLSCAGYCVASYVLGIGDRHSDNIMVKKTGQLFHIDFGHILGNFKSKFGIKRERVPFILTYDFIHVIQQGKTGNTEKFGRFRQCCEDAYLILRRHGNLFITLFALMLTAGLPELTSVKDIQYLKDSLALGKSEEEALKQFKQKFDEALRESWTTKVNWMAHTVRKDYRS
Chain of PIK3CA (human) (P42336 whole entry, looked up): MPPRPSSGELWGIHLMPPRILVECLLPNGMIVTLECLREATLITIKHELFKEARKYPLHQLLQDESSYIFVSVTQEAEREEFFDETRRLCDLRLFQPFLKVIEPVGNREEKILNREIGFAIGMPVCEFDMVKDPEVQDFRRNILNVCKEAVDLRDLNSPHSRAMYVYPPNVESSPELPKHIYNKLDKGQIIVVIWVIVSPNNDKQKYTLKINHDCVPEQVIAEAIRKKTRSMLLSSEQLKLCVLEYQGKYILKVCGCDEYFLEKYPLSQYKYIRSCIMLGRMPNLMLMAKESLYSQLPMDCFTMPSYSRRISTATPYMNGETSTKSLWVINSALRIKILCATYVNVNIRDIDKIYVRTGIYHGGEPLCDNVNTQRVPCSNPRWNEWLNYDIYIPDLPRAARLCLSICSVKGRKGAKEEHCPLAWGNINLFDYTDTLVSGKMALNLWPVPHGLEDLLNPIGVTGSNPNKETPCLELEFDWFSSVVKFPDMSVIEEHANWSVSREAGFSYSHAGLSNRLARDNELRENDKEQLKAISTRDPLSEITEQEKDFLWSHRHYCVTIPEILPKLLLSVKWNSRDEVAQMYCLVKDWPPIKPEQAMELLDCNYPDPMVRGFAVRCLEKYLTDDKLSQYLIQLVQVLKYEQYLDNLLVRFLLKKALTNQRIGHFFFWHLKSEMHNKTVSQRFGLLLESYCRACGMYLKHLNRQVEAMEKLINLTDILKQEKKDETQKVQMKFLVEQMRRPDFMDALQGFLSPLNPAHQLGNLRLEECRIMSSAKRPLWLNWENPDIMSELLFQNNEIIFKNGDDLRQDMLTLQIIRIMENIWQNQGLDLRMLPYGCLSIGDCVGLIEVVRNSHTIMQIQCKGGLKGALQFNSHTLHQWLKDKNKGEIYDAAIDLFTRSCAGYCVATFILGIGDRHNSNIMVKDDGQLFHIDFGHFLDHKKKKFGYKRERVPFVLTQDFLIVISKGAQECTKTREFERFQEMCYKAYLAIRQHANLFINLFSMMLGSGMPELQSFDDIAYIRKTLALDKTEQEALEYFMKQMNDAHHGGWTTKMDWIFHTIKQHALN

Row | SMILES | IC50 (PIK3CA (human)) [nM] | IC50 (PIK3CG (human)) [nM] | IC50 (PIK3CB (Human)) [nM] | IC50 (PIK3CD (Human)) [nM]
1 | Cc1cccc2cc(Cn3nc(-c4cn[nH]c4)c4c(N)ncnc43)n(-c3ccccc3F)c(=O)c12 | > 10000 | 100 to 1000 |  | 
2 | Cc1ccccc1-n1c(Cn2nc(Cl)c3c(N)ncnc32)cc2cccc(C)c2c1=O | > 10000 | 100 to 1000 |  | 
3 | Cc1ccccc1-n1c(Cn2nc(-c3ccc(O)cc3)c3c(N)ncnc32)cc2cccc(C)c2c1=O | > 10000 |  | > 10000 | 100 to 1000
4 | Cc1ccccc1-n1c(Cn2nc(-c3ccc4sc(N)nc4c3)c3c(N)ncnc32)cc2cccc(C)c2c1=O | 100 to 1000 |  | 100 to 1000 | < 100
5 | Cc1cccc2cc(Cn3nc(-c4ccc5nc(N)sc5c4)c4c(N)ncnc43)n(-c3ccccc3)c(=O)c12 | < 100 |  | 100 to 1000 | < 100
6 | Cc1cccc2cc(Cn3nc(C4=CCOCC4)c4c(N)ncnc43)n(-c3ccccc3)c(=O)c12 | > 10000 |  | > 10000 | > 10000
7 | CCc1nn(Cc2cc3cccc(C)c3c(=O)n2-c2ccccc2C)c2ncnc(N)c12 | > 10000 |  | > 10000 | < 100
8 | Cc1cccc2cc([C@H](C)Nc3ncnc4[nH]cc(Cl)c34)n(-c3ccccc3)c(=O)c12 | 100 to 1000 |  | < 100 | < 100
9 | Cc1cccc2cc([C@H](C)Nc3ncnc4[nH]cnc34)n(-c3cccc(F)c3)c(=O)c12 | > 10000 |  | 100 to 1000 | < 100
10 | Cc1cccc2cc(Cn3nc(I)c4c(N)ncnc43)n(-c3ccccc3F)c(=O)c12 |  | 100 to 1000 |  | 
11 | Cc1cccc2cc([C@H](C)Nc3ncnc4[nH]cc(C(N)=O)c34)n(-c3ccccc3)c(=O)c12 | 100 to 1000 |  | < 100 | < 100
12 | Cc1cccc2cc(Cn3nc(-c4cc(O)cc(F)c4)c4c(N)ncnc43)n(-c3ccccc3OCCN3CCOCC3)c(=O)c12 |  | 100 to 1000 |  | 
13 | Cc1cccc2cc(Cn3nc(-c4ccn[nH]4)c4c(N)ncnc43)n(-c3ccccc3F)c(=O)c12 | > 10000 |  | > 10000 | 100 to 1000
14 | CCc1ccccc1-n1c(Cn2nc(C#C[C@@H](C)O)c3c(N)ncnc32)cc2cccc(C)c2c1=O | > 10000 | 100 to 1000 |  | 
15 | Cc1cccc2cc([C@H](C)Nc3cc(N)nc(Cl)n3)n(-c3ccccc3)c(=O)c12 | > 10000 |  | > 10000 | 100 to 1000
16 | Cc1ccccc1-n1c(Cn2nc(-c3ccn[nH]3)c3c(N)ncnc32)cc2cccc(C)c2c1=O | > 10000 |  | > 10000 | 100 to 1000
17 | Cc1ccccc1-n1c(Cn2nc(-c3cc(O)cc(F)c3)c3c(N)ncnc32)cc2cccc(F)c2c1=O | > 10000 | 100 to 1000 |  | 
18 | Nc1ncnc2c1c(-c1cn[nH]c1)nn2Cc1cc2cccc(F)c2c(=O)n1-c1ccccc1F | > 10000 |  | > 10000 | 100 to 1000
19 | Cc1cccc2cc([C@H](C)Nc3cc(N)nc(Cl)n3)n(C3CC3)c(=O)c12 | > 10000 |  | > 10000 | > 10000
20 | Cc1cccc2cc(C(C)Nc3nc(O)ncc3N)n(-c3ccccc3)c(=O)c12 (stereo unspecified) | > 10000 |  | > 10000 | > 10000
21 | Cc1cccc2cc([C@H](C)Nc3ncnc4[nH]cnc34)n(-c3ccc(F)cc3)c(=O)c12 | 100 to 1000 |  | < 100 | < 100
22 | COc1ccc(-c2nn(Cc3cc4cccc(C)c4c(=O)n3-c3ccccc3C)c3ncnc(N)c23)cc1OC | > 10000 |  | > 10000 | 100 to 1000
23 | Cc1cccc2cc(Cn3nc(Cl)c4c(N)ncnc43)n(-c3ccccc3F)c(=O)c12 | > 10000 |  | > 10000 | 100 to 1000
24 | Cc1cccc2cc(Cn3nc(Br)c4c(N)ncnc43)n(-c3ccccc3F)c(=O)c12 | > 10000 |  | > 10000 | 100 to 1000

Row | SMILES | IC50 (PIK3CA (human)) [nM] | IC50 (PIK3CG (human)) [nM] | IC50 (PIK3CB (Human)) [nM] | IC50 (PIK3CD (Human)) [nM]
25 | Cc1cccc2cc(Cn3nc(I)c4c(N)ncnc43)n(C3CCCCC3)c(=O)c12 | > 10000 |  | > 10000 | 100 to 1000
26 | Cc1cccc2cc([C@@H](C)Nc3ncnc4[nH]cnc34)n(C3CCC3)c(=O)c12 | > 10000 |  | > 10000 | > 10000
27 | C[C@H](Nc1ncnc2[nH]cnc12)c1cc2cccc(Cl)c2c(=O)n1C1CC1 | 100 to 1000 |  | < 100 | < 100
28 | Cc1cccc2cc(Cn3nc(-c4ccc(O)c(F)c4)c4c(N)ncnc43)n(-c3ccccc3F)c(=O)c12 | > 10000 |  | > 10000 | 100 to 1000
29 | Cc1ccccc1-n1c(Cn2nc(I)c3c(N)ncnc32)cc2cccc(F)c2c1=O | > 10000 |  | > 10000 | 100 to 1000
30 | Cc1cccc2cc(Cn3nc(I)c4c(N)ncnc43)n(C)c(=O)c12 | > 10000 |  | > 10000 | 100 to 1000
31 | Cc1cccc2cc([C@H](C)Nc3nc(N)ncc3C(N)=O)n(C3CC3)c(=O)c12 | > 10000 |  | > 10000 | > 10000
32 | CCC(Nc1ncnc2[nH]cnc12)c1cc2cccc(C)c2c(=O)n1-c1cc(F)cc(F)c1 (stereo unspecified) | > 10000 |  | > 10000 | < 100
33 | C=Cc1nn(Cc2cc3cccc(C)c3c(=O)n2-c2ccccc2F)c2ncnc(N)c12 | > 10000 |  | > 10000 | 100 to 1000
34 | Cc1ccccc1-n1c(Cn2nc(C#C[C@@H](C)O)c3c(N)ncnc32)cc2cccc(F)c2c1=O | > 10000 |  | > 10000 | 100 to 1000
35 | Cc1cccc2cc([C@H](C)Nc3nc(N)nc4[nH]cnc34)n(-c3ccccc3)c(=O)c12 | 100 to 1000 |  | < 100 | < 100
36 | Cc1cccc2cc([C@H](C)Nc3nc(Cl)ncc3Cl)n(-c3ccccc3)c(=O)c12 | > 10000 |  | > 10000 | 100 to 1000
37 | Cc1cccc2cc(Cn3nc(-c4ccc5oc(N)nc5c4)c4c(N)ncnc43)n(C3CC3)c(=O)c12 | < 100 |  | 100 to 1000 | < 100
38 | Cc1ccccc1-n1c(Cn2nc(CCC(N)=O)c3c(N)ncnc32)cc2cccc(C)c2c1=O | > 10000 |  | > 10000 | 100 to 1000
39 | Cc1cccc2cc([C@H](C)Nc3ncnc4[nH]cc(C#N)c34)n(-c3ccccc3)c(=O)c12 | 100 to 1000 |  | < 100 | < 100
40 | Cc1cccc2cc([C@H](C)Nc3ncnc4[nH]c(O)nc34)n(-c3ccccc3)c(=O)c12 | > 10000 |  | > 10000 | > 10000
41 | Cc1cccc2cc(C(C)Nc3nc(Cl)ncc3N)n(-c3ccccc3)c(=O)c12 (stereo unspecified) | > 10000 |  | > 10000 | > 10000
42 | Cc1cccc2cc([C@H](C)NC3CCOCC3)n(-c3ccccc3)c(=O)c12 | > 10000 |  | > 10000 | > 10000
43 | CC(=O)Nc1nc2ccc(-c3nn(Cc4cc5cccc(C)c5c(=O)n4-c4ccccc4C)c4ncnc(N)c34)cc2o1 | > 10000 |  | > 10000 | < 100
44 | Cc1cccc2cc([C@H](C)Nc3ncnc4[nH]cc(Br)c34)n(C3CC3)c(=O)c12 | 100 to 1000 |  | < 100 | < 100
45 | Cc1cccc2cc([C@H](C)Nc3ncnc4[nH]cc(F)c34)n(C3CC3)c(=O)c12 | 100 to 1000 |  | < 100 | < 100
46 | Cc1cccc2cc(Cn3nc(-c4ccc(O)cc4)c4c(N)ncnc43)n(-c3ccccc3F)c(=O)c12 |  | 100 to 1000 |  | 
47 | Cc1cccc2cc(Cn3nc(-c4ccc(O)c(Cl)c4)c4c(N)ncnc43)n(-c3ccccc3F)c(=O)c12 | > 10000 |  | > 10000 | 100 to 1000
